The values that follow come from ChEMBL document CHEMBL1201862, “PubChem BioAssay data set” (2004).

Experiment [1] can be described thus: microbe, parasite or virus in culture. Type of experiment: functional. The settings on record: Mycobacterium tuberculosis.
The next experiment concerns the target T1, Protein skinhead-1 (Caenorhabditis elegans, UniProt P34707).
T1 sequence (P34707 whole entry): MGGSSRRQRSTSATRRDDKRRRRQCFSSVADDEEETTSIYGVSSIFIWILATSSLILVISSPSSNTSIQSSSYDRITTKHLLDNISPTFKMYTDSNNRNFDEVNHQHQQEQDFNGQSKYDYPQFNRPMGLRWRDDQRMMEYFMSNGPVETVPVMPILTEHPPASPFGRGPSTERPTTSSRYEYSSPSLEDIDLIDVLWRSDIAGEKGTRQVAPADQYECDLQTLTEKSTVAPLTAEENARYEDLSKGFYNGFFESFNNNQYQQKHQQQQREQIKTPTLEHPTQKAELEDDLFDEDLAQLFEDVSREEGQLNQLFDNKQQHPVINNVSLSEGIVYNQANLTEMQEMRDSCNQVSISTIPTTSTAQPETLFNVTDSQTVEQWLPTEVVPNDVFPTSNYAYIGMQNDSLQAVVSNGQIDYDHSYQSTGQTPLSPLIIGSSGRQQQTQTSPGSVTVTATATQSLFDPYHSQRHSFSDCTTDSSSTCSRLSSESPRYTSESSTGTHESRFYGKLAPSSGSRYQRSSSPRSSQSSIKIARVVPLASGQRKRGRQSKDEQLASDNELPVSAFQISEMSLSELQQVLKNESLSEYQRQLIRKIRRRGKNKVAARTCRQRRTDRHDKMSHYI
The class given is functional.

Experiment [2] is described as follows: NIH-3T3 fibroblast cytotoxicity, dose response, cytotoxicity control, cell-based, fluorescence, Alamar Blue, secondary assay (AID 2327).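 Note: NIH-3T3 mouse fibroblasts cultured with fluconazole at 8 µg/mL.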 Type of experiment: functional. (Alamar Blue is a resazurin reagent that responds to reducing activity.)
Experiment [3] can be described thus: fluconazole-exposed Candida albicans growth modulators – fluorescence, retest, confirmation (AID 2467). Type of experiment: functional, cell-based.
A short description of experiment [4]: viability of HCT116 lacking mutant beta-catenin – cell-based, human colon tumor, dose response (AID 1045).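 Note: HCT116 colon tumor cells with beta catenin knocked out; cells exposed to compound for 60 hours.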 Type of experiment: functional.
The nature of experiment [5]: viability of PTEN-deleted HCT116 cells – cell-based, HCT116 PTEN knockout, dose response (AID 1047).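 Note: HCT116 colon tumor cells with PTEN knocked out; cells exposed to compound for 60 hours before readout; potency for loss of cell viability measured by luminescence.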 Type of experiment: functional.
Experiment [6] deals with T2, Corticotropin-releasing factor receptor 2/Corticotropin-releasing factor-binding protein (Homo sapiens, UniProt P24387+Q13324).
T2 sequence (Q13324 whole entry): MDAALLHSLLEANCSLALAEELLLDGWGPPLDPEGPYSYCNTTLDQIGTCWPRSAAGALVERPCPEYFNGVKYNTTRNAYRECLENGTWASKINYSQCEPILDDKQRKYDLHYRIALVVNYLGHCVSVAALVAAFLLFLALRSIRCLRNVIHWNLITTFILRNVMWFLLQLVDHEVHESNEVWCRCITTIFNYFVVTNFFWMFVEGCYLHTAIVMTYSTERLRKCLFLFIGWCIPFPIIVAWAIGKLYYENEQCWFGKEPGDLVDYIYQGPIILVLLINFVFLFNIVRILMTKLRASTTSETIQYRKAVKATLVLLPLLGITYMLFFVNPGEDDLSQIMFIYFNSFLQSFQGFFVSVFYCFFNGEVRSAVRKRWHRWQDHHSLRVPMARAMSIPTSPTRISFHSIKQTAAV
T2 sequence (P24387 whole entry): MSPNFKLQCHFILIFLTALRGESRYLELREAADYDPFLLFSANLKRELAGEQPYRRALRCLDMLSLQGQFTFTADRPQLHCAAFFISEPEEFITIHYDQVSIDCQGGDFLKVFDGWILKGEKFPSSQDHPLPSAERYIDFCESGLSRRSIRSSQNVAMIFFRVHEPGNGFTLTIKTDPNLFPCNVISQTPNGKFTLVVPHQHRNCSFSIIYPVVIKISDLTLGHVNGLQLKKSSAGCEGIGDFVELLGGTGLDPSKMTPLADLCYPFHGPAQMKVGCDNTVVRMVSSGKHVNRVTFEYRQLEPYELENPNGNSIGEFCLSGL
Nature of the experiment: activators of CRF receptor 2 with binding protein – uHTS hits, confirmation (AID 602473). The conditions noted are these: read-out: EC50_Mean. The class given is functional.

Experiment [7] concerns the target T3, Heat shock factor protein 1 (Mus musculus, UniProt P38532).
T3 sequence (P38532 whole entry): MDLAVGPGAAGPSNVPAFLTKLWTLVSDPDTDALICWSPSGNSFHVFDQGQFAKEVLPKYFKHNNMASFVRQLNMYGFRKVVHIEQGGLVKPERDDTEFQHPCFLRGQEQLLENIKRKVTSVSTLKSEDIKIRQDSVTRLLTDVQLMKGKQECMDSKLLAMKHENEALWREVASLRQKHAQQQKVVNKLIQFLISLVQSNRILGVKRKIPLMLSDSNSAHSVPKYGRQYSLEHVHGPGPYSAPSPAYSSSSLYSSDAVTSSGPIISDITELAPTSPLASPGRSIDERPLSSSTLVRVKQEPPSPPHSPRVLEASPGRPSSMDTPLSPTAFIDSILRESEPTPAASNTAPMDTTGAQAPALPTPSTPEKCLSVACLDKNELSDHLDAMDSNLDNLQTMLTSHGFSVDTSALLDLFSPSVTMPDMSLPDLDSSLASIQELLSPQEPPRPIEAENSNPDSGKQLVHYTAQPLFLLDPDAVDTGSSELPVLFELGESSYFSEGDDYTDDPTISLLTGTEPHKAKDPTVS
Nature of the experiment: enhancement of HSF1-driven luciferase signal – cell-based, NIH3T3, luminescence, dose retest, confirmation (AID 435004).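 Note: stress induced by proteasome inhibitor MG132 added 30 min after compound; luciferase reporter driven by HSF1 response element in NIH3T3 cells; actives raise luminescence as potentiators of the MG132 stress response.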 The class given is functional.

Experiment [8] deals with T4, Short transient receptor potential channel 4 (Mus musculus, UniProt Q9QUQ5).
T4 sequence (Q9QUQ5 whole entry): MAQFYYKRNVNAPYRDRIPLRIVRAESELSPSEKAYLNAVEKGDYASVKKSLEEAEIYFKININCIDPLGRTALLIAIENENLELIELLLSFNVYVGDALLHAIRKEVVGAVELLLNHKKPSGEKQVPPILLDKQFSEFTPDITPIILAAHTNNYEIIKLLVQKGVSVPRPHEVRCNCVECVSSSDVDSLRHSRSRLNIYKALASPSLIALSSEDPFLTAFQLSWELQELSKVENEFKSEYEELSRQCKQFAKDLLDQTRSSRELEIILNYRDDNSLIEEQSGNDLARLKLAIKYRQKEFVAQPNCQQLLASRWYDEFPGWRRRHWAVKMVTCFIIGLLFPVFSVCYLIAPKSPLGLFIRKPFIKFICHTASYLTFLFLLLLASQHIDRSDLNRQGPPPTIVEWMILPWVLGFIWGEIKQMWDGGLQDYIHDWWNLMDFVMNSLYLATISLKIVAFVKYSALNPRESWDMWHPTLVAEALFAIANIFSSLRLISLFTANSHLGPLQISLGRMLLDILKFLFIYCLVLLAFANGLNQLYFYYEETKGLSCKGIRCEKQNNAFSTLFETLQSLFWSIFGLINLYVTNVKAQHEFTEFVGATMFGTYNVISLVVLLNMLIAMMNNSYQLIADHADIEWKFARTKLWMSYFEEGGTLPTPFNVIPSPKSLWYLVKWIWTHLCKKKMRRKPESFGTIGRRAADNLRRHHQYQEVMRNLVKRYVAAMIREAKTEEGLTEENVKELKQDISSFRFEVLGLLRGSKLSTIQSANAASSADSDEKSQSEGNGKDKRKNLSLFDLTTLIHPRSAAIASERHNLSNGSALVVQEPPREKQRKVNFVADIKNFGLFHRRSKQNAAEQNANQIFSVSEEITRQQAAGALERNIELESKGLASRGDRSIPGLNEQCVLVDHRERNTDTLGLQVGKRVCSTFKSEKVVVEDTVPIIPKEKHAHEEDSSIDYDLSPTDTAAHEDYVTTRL
Nature of the experiment: block of DAMGO-driven TRPC4 calcium entry – cell-based, HEK293 TRPC4/mu-opioid, Fluo-4 calcium, dose response (AID 434942).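 Note: potency of inhibitors blocking the TRPC4 calcium response.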 Type of experiment: functional.

Another experiment concerns the target Nonstructural protein 1 (Influenza A virus, UniProt Q194T2). Type of experiment: functional, Influenza A virus (A/California/07/2009(H1N1)).
The next experiment relates to INS1. Nature of the experiment: INS-1E survival protection against cytokine death – cell-based, luminescence, retest, dose response (AID 449756).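 Note: cell death triggered by IL-1 beta plus TNF-alpha plus IFN-gamma mixture; protective hits raise ATP signal compared with cytokine alone wells.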 Type of experiment: functional. The conditions noted are these: Rattus norvegicus.
For the next experiment, the system named is Streptococcus. Nature of the experiment: GAS UMAA2166 growth inhibition – luminescence, BacTiterGlo, counter-screen for streptokinase expression inhibitor project, dose response (AID 1915).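 Note: potency for reduction of bacterial viability or growth.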 The class given is functional, organism-based. A general note: A counterscreen serves to expose hits that act by an unwanted route or on another target.
A further experiment concerns the target T5, Streptokinase A (Streptococcus pyogenes serotype M1, UniProt P10520).
T5 sequence (P10520 whole entry): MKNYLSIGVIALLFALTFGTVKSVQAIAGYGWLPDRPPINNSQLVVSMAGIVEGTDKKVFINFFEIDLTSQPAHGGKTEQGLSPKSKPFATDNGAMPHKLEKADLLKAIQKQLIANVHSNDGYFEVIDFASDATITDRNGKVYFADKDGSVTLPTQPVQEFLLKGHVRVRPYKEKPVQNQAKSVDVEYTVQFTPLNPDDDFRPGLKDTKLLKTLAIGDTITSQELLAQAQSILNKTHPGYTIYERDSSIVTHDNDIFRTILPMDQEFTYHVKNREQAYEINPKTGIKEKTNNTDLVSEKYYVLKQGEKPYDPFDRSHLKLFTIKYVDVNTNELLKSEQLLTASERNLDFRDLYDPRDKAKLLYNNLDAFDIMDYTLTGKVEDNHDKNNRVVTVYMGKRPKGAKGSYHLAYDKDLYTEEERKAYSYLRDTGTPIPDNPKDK
Nature of the experiment: viability-normalized secreted streptokinase activity reduction – plasminogen activation absorbance, OD405, dose response (AID 1914).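 Note: secreted streptokinase activity via plasminogen activation per viability signal from cell pellet.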 Type of experiment: functional, Streptococcus pyogenes M1 GAS.

Experiment [9] deals with Streptococcus sp. 'group A'. Nature of the experiment: Streptococcus pyogenes SK(-)GAS viability under kanamycin – luminescence, BacTiterGlo, confirmation, counter-screen for streptokinase expression inhibitor project, dose response (AID 1900). Type of experiment: functional, organism-based.

The term IC50 denotes the concentration that gives 50% inhibition. Broadly, the AC50 is the concentration at which the activity in the assay is half-maximal.

Activity calls are given as the source filed them.

Sequence of Nonstructural protein 1 (Q194T2 whole entry): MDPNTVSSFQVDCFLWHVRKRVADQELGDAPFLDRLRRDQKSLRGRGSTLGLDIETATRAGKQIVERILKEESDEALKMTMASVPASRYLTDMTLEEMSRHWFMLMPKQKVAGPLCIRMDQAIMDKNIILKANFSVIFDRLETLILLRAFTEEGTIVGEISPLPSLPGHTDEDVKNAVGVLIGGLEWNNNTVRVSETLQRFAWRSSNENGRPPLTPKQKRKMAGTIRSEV

Consider `Cc1cc(=O)oc2c(C)c(OCC(=O)N3CCN(C(=O)C4COc5ccccc5O4)CC3)ccc12` (centres undefined), for which the CC50 in [1] is > 40 µM (active).

Consider `Cc1cccc(NC(=O)c2ccc3c(c2)C(=O)N(c2ccccc2C)C3=O)n1`, for which the IC50 on Protein skinhead-1 is > 100 µM (inactive).

Turning to `ClCc1nc2ccccc2c2ccccc12`, the CC50 in experiment [1] is 18.6 µM (active).

With `COc1ccc(C(C(=O)NC2CCCCC2)N(Cc2cccs2)C(=O)Cc2c[nH]c3ccccc23)cc1` (centres undefined), the EC50 in experiment [2] was > 150 µM (inactive); in experiment [3], > 38 µM (not active). Moreover, on Protein skinhead-1, the IC50 is > 100 µM (inactive).

Take `O=C(C1CCCN(S(=O)(=O)c2ccc(F)cc2)C1)N(Cc1cccs1)C1CC1` (centres undefined): the EC50 in experiment [4] was 137 µM (active); in [5], 51.6 µM (active).

As for `CN(C)CCNC(=O)c1ccc(COc2ccc(Cl)cc2Cl)cc1`, the EC50 was 9 µM (active) in experiment [4] and 10.7 µM (active) in experiment [5].

`C#CC[N+](C)(C)CCCCCCCC`: the EC50 was 16 µM (active) in experiment [4], 13.6 µM (active) in experiment [5] and > 53 µM (inactive) in [6].

In the case of `N#Cc1cc2c(nc1SCC(=O)Nc1cc(Cl)ccc1Cl)C1CCN2CC1`, the EC50 in [4] is 3.02 µM (active); in experiment [5] it was 6 µM (active).

Regarding `COc1ccccc1CNCC(c1ccccc1)c1ccccc1`, the EC50 is > 260 µM (inactive) in experiment [7] and 4.73 µM (active) in experiment [8].

Consider `C=C(C)Cn1c(SCC)nc2ccccc2c1=O`, for which the EC50 in [8] is 4.73 µM (active).

Consider `COc1ccc(C2C(C(C)=O)=C(O)C(=O)N2c2ccc(Br)cc2)cc1` (centres undefined), for which the EC50 in experiment [8] is 0.668 µM (active).

Consider `COc1cc(C2C(C#N)=C(C)N=C3C2=C(O)c2ccccc23)cc(OC)c1OC` (centres undefined), for which the EC50 in experiment [4] is 21.5 µM (active); in [5], 16.1 µM (active).

For the compound `OCC1(Cc2ccccc2)CCCN(Cc2cnn(-c3ccccc3)c2)C1` (centres undefined), in [8], the EC50 is 4.22 µM (active).

As to `Cc1nnc2sc(SCC(=O)Nc3cccc(Cl)c3)nn2c1=O`, the half-maximal inhibitory concentration (IC50) at Nonstructural protein 1 was 10.4 µM (active).

`Fc1ccc(-c2nnc3ccc(N4CCc5ccccc5C4)nn23)cc1`: the EC50 in [7] was > 260 µM (inactive); in experiment [4] it was 54 µM (active); in experiment [5] it was 40.1 µM (active).

Consider `c1ccc(-c2ccc(-c3nc(-c4cccnc4)no3)cc2)cc1`, for which, at Protein skinhead-1, the IC50 is > 100 µM (inactive).

On to `Cn1c(-c2ccccc2)cnc1NCc1ccc(F)cc1`, for which the EC50 in experiment [8] is 1.88 µM (active).

As to `Nc1ccc(C=C2C=Cc3ccccc32)cc1`, the IC50 on Protein skinhead-1 was 21.3 µM (active).

In the case of `Brc1cccc(-c2nc3ccc(Br)cn3c2Cc2ccsc2)c1`, the IC50 on Protein skinhead-1 was > 100 µM (inactive).

As for `COc1cc(C(=O)N/N=C(\C)c2ccccn2)cc(OC)c1OC`, on Nonstructural protein 1, the IC50 was 16.9 µM (active). The AC50 in the experiment on INS1 is 1.94 µM (active).

On to `O=[N+]([O-])c1cccc(/C=C/c2ccccn2)c1`, for which the IC50 at Protein skinhead-1 is 39.8 µM (active).

For `Cc1cccc(/C=c2\s/c(=C\C(=O)C(C)(C)C)[nH]c2=O)c1`, the results for the EC50 (in the experiment with Streptococcus; at Streptokinase A; in [9]) were 17.2 µM (active), > 150 µM (not active) and 10 µM (active), respectively. In experiment [1], the CC50 was 24.7 µM (active).

Regarding `COc1ccc(NS(=O)(=O)c2ccc(N/N=C/c3ccc(N4CCOCC4)cc3)c([N+](=O)[O-])c2)cc1`, the values for the EC50 in experiment [4] and in experiment [5] were 5.68 µM (active) and 6.25 µM (active), respectively.
